The values below come from patent US20260174757A1, “COMPOSITIONS AND METHODS FOR TREATING PULMONARY ARTERIAL HYPERTENSION” (Inhibikase Therapeutics, Inc., priority 2024, published 2026).

Data set [1] can be described thus: Comparative toxicology in non-human primate (NOAEL). The conditions noted are these: cynomolgus macaque, in vivo; 28-day GLP toxicology study in cynomolgus macaques; read-out: No Adverse Effect Level (NOAEL). The text has this: The compound of formula (I) was originally developed to address on-dosing side effects of imatinib therapy. In particular, up to 50% of imatinib patients experience persistent Grade 2 or less gastrointestinal (GI) adverse events during treatment for blood or stomach cancers, and during the previous imatinib trials, up to ⅓ of participants experienced these GI events including 3% of participants experiencing SAEs due to GI disturbance. The compound of formula (I) was developed specifically to reduce these events with the expectations that improvement in other off-target or unintended side effects of this therapy could follow. To illustrate the potential of the compound of formula (I) to minimize GI disturbance, the compound was evaluated in comparative toxicology experiments in non-human primate (NHP).

The conditions of data set [2]: human, in vivo. From the text:
Additionally, the clinical pharmacokinetics for each cohort of healthy subjects studied for the compound of formula (I) using the designs were summarized.

For data set [3] the following is noted: imatinib mesylate in NHP, Q.D.; from NDA 21-335; cited from earlier work.
The conditions of data set [4]: steady state, Day 91, NOAEL 15 mg/kg, from NDA 21-335, cited from earlier work.

Structures can show the parent of a compound that is named as a salt. Where two headings read alike, the source gives them in different places.

Regarding `CCC(C)OC(=O)OC[N+]1(C)CCN(Cc2ccc(C(=O)Nc3ccc(C)c(Nc4nccc(-c5cccnc5)n4)c3)cc2)CC1` (stereo not shown) [IkT-001Pro], in data set [1], the NOAEL at 28 day stood at 75 mg/kg. Moreover, the “dose dependence of single dose Cmax and AUC0-inf” value in data set [2] was “increased linearly with dose”. In data set [2] (300 mg), the AUC0-last came to 17820 ng·h/mL, the CL/F was 14.03 L/h, the Cmax turned out to be 926.1 ng/mL and the time to peak (Tmax) came to 5.33 h. For the same compound, in data set [2] (300 mg), the Vz/F was found to be 331.4 L. Also, in data set [2] (400 mg), the AUC0-last worked out at 30100 ng·h/mL, the apparent clearance CL/F is 10.82 L/h, the maximum concentration (Cmax) worked out at 1563 ng/mL and the Tmax was found to be 5.75 h. This compound registered a Vz/F in data set [2] (400 mg) of 247.5 L. Besides, in data set [2] (500 mg), the AUC0-last stood at 38440 ng·h/mL, the CL/F came out at 11.29 L/h, the Cmax came out at 1836 ng/mL and the time to peak (Tmax) came to 5.75 h. Also, the Vz/F in data set [2] (500 mg) came out at 303.8 L. Besides, in data set [2] (600 mg), the “AUC0-inf LSM (plasma imatinib)” value was 41202.597, the “AUC0-last LSM (plasma imatinib)” value stood at 40456.384 and the “Cmax LSM (plasma imatinib)” value came out at 1939.51. Also, in data set [2] (800 mg), the “AUC0-inf LSM” value was 50840.298, the AUC0-last came to 51430 ng·h/mL, the “AUC0-last LSM” value is listed as 50220.802 and the CL/F worked out at 12.8 L/h. For the same compound, in data set [2] (800 mg), the peak concentration (Cmax) is 2467 ng/mL, the “Cmax LSM” value came out at 2409.131, the Tmax is 5.5 h and the Vz/F was determined as 272 L.

As to `Cc1ccc(NC(=O)c2ccc(CN3CCN(C)CC3)cc2)cc1Nc1nccc(-c2cccnc2)n1` [Imatinib mesylate, imatinib mesylate], the “No Adverse Effect Level (NOAEL)” value in data set [3] was 15 mg/kg. Further, the “AUC0-last (mean)” value in data set [4] (female) was 1960 ng·h/mL; in data set [4] (male), 1540 ng·h/mL.

As usually defined, the NOAEL is the highest tested level that showed no adverse finding. The CL/F is clearance divided by bioavailability, as obtained after extravascular dosing. One may read the Cmax as the maximum level reached in the sampled fluid or tissue. Usually Tmax stands for the time at which the peak concentration occurs.
